The inhibition is the percentage by which the read-out fell short of the control.

From article PMC10706242, “Inhibitors of 3-Hydroxy-3-methylglutaryl Coenzyme A Reductase Decrease the Growth, Ergosterol Synthesis and Generation of petite Mutants in Candida glabrata and Candida albicans” (International Journal of Molecular Sciences, 2023) come the findings set out here.

The target in assay [1] is T1, rec-CgHMGR (CgHMGR) (Nakaseomyces glabratus, UniProt Q6FKH6).
T1 construct: gene HMG1; transmembrane region removed), pPICZB, His-tagged, expressed in Pichia pastoris X-33, Ni-NTA purified, approx. 48 kDa by SDS-PAGE
T1 sequence (Q6FKH6 619-1056 limits assumed): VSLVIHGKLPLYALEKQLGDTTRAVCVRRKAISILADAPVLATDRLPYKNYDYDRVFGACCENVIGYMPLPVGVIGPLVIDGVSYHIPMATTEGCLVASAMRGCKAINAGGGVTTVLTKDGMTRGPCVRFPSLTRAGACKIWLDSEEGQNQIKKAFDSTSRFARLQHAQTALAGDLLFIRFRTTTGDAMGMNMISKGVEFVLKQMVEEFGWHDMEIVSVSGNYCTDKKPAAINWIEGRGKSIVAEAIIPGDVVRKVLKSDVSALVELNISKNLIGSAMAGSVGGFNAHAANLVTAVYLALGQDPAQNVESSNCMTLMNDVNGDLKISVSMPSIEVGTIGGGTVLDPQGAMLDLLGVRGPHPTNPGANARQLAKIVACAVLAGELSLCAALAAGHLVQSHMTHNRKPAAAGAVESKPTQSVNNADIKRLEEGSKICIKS
Put plainly: NADPH oxidation at […] nm. The following applies: read-out: Inhibition (% of Relative Activity) *. The class given is biochemical.

Assay [2] concerns the target T1, rec-CgHMGR (CgHMGR). Put plainly: NADPH oxidation at […] nm. The assay is classed as biochemical. To be noted: HMG-CoA, 50 mM Tris-HCl pH 8.0, 37 °C.

In the case of `CCCc1cc(OC)c(OCC(=O)OC)cc1[N+](=O)[O-]` [1a], the inhibition at 100 µM on rec-CgHMGR (CgHMGR) [1] was 73 ± 1.52%.

With `CCCc1cc(OC)c(OCC(=O)OC)cc1O` [1b], the inhibition at 100 µM at rec-CgHMGR (CgHMGR) [1] came out at 89 ± 1.24%. With `CCc1ccc(OCC(=O)OC)c([N+](=O)[O-])c1` [6g], the inhibition at 100 µM on rec-CgHMGR (CgHMGR) [1] amounted to 86 ± 3.21%. In the case of `CCCc1cc(OC)c(OC)cc1O` [7a], the inhibition at 100 µM on rec-CgHMGR (CgHMGR) [1] amounted to 66 ± 2.08%. Take `NC(=O)C1=CN([C@@H]2O[C@H](COP(=O)(O)OP(=O)(O)OC[C@H]3O[C@@H](n4cnc5c(N)ncnc54)[C@H](OP(=O)(O)O)[C@@H]3O)[C@@H](O)[C@H]2O)C=CC1` [NADPH]: the “NADPH oxidation at 340 nm” value on rec-CgHMGR (CgHMGR) [2] is listed as “converted into its oxidized form by the catalytic subunit of HMGR in the presence of HMG-CoA”.
